US20240287097A1, “COMPOUNDS AND METHODS FOR MODULATING SPLICING” (REMIX THERAPEUTICS INC., priority 2020, published 2024)
pIC50: −log10 of the molar value.

Key:
Format in all cases: cell-based
[1] = system: HTT mRNA, alternative junction (AJ); assay: Splicing RT-qPCR assay, HTT alternative junction (AJ) mRNA increase; settings: A673 or K562 cells, 24 hours compound treatment, 50% response in AJ increase
Procedure: (§1) Compounds described herein were used to modulate RNA transcript abundance in cells. The expression of a target mRNA was measured by detecting the formation of an exon-exon junction in the canonical transcript (CJ). A compound mediated exon-inclusion event was detected by observing an increase in formation of a new junction with an alternative exon (AJ). Real-time qPCR assays were used to detect these splicing switches and interrogate the potency of various compounds towards different target genes. A high-throughput real time quantitative PCR (RT-qPCR) assay was developed to measure these two isoforms of the mRNA (CJ and AJ) for an exemplary gene, HTT, together with a control housekeeping gene, GAPDH or GUSB or PPIA, used for normalization. Briefly, the A673 or K562 cell line was treated with various compounds described herein (e.g., compounds of Formula (I)). After treatment, the levels of the HTT mRNA targets were determined from each sample of cell lysate by cDNA synthesis followed by qPCR.
(§2) • Cells-to-CT 1-step kit: ThermoFisher A25602, Cells-to-CT lysis reagent: ThermoFisher 4391851C, TagMan™ Fast Virus 1-Step Master Mix: ThermoFisher 4444436 • GAPDH: VIC-PL, ThermoFisher 4326317E (Assay: Hs99999905 m1)—used for K562/suspension cell lines • GUSB: VIC-PL, ThermoFisher 4326320E (Assay: Hs99999908 m1)—used for K562/suspension cell lines • PPIA: VIC-PL, ThermoFisher 4326316E (Assay: Hs99999904 m1)—used for A673/adherent cell lines
(§3) The A673 cell line was cultured in DMEM with 10% FBS. Cells were diluted with full growth media and plated in a 96-well plate (15,000 cells in 100 ul media per well). The plate was incubated at 37° C. with 5% CO2 for 24 hours to allow cells to adhere. An 11-point 3-fold serial dilution of the compounds was made in DMSO then diluted in media in an intermediate plate. Compounds were transferred from the intermediate plate to the cell plate with the top dose at a final concentration of 10 uM in the well. Final DMSO concentration was kept at or below 0.25%. The cell plate was returned to the incubator at 37° C. with 5% CO2 for an additional 24 hours.
(§4) The K562 cell line was cultured in IMDM with 10% FBS. For K562, cells were diluted with full growth media and plated in either a 96-well plate (50,000 cells in 50 uL media per well) or a 384-well plate (8,000-40,000 cells in 45 uL media per well). An 11-point 3-fold serial dilution of the compounds were made in DMSO then diluted in media in an intermediate plate. Compound was transferred from the intermediate plate to the cell plate with the top dose at a final concentration of 10 uM in the well. Final DMSO concentration was kept at or below 0.25%. Final volume was 100 uL for 96-well plate and 50 uL for 384-well plate. The cell plate was then placed in an incubator at 37° C. with 5% CO2 for 24 hours.
(§5) The cells were then gently washed with 50 uL-100 uL cold PBS before proceeding to addition of lysis buffer. 30 uL-50 uL of room temperature lysis buffer with DNAse I (and optionally RNAsin) was added to each well. Cells were shaken/mixed thoroughly at room temperature for 5-10 minutes for lysis to take place and then 3 uL-5 uL of room temperature stop solution was added and wells were shaken/mixed again. After 2-5 minutes, the cell lysate plate was transferred to ice for RT-qPCR reaction setup. The lysates could also be frozen at ˜80° C. for later use.
(§6) In some cases, a direct lysis buffer was used. An appropriate volume of 3×lysis buffer (10 mM Tris, 150 mM NaCl, 1.5%-2.5% Igepal and 0.1-1 U/uL RNAsin, pH 7.4) was directly added to either K562 or A673 cells in media and mixed by pipetting 3 times. The plates were then incubated at room temperature with shaking/rocking for 20-50 minutes to allow for lysis to take place. After this time, the cell lysate plate was transferred to ice to set up for the RT-qPCR reactions. The lysates could also be frozen at −80° C. for later use. […]

[2] = system: HTT mRNA, canonical junction (CJ); assay: Splicing RT-qPCR assay, HTT canonical junction (CJ) mRNA decrease; settings: A673 or K562 cells, 24 hours compound treatment, 50% response in CJ decrease
Procedure: as §1, §2, §3, §4, §5, §6

HTT CJ mRNA transcript = assay: Gene panel canonical junction qPCR assay, HTT; settings: 50% response in CJ decrease, read-out: HTT IC50 (decrease in CJ mRNA levels)
Procedure: as §1, §3, §4
(§7) The data analysis was performed by first determining the ΔCt vs the housekeeper gene. This ΔCt was then normalized against the DMSO control (ΔΔCt) and converted to RQ (relative quantification) using the 2^(−ΔΔCt) equation. The RQ were then converted to a percentage response by arbitrarily setting an assay window of 3.5 ΔCt for HTT-CJ and an assay window of 9 ΔCt for HTT-AJ. […] The percentage response was then fitted to the 4 parametric logistic equation to evaluate the concentration dependence of compound treatment. The increase in AJ mRNA is reported as AC50 (compound concentration having 50% response in AJ increase) while the decrease in CJ mRNA levels is reported as IC50 (compound concentration having 50% response in CJ decrease).
(§8) Additional studies were carried out for a larger panel of genes using the protocol provided above. The junction between flanking upstream and downstream exons was used to design canonical junction qPCR assays. At least one of the forward primer, reverse primer or the CY5-labeled 5′ nuclease probe (with 3′ quencher such as ZEN/Iowa Black FQ) was designed to overlap with the exon junction to capture the CJ mRNA transcript. BLAST was used to confirm the specificity of the probeset and parameters such as melting temperature, GC content, amplicon size, and primer dimer formation are considered during their design. Data for the decrease in CJ mRNA levels for three exemplary genes (HTT, SMN2, and Target C) analyzed in this panel are reported as IC50 (compound concentration having 50% response in CJ decrease).

SMN2 CJ mRNA transcript = assay: Gene panel canonical junction qPCR assay, SMN2; settings: 50% response in CJ decrease, read-out: SMN2 IC50 (decrease in CJ mRNA levels)
Procedure: as §1, §3, §4, §7, §8

[3] = system: Target C CJ mRNA transcript; assay: Gene panel canonical junction qPCR assay, Target C; settings: 50% response in CJ decrease, read-out: Target C IC50 (decrease in CJ mRNA levels)
Procedure: as §1, §3, §4, §7, §8

pIC50 (HTT CJ mRNA transcript)	pIC50 (SMN2 CJ mRNA transcript)	pIC50 [3]	Compound	AC50 [1] [µM]	AC50 [2] [µM]
< 5.00	< 5.00	< 5.00	CN1CCC(c2nc3c(=O)n(-c4ccc5nn(C)cc5c4)cnc3s2)CC1 [Compound 176, 6-(2-methyl-2H-indazol-5-yl)-2-(1-methylpiperidin-4-yl)thiazolo[5,4-d]pyrimidin-7(6H)-one]	> 10	> 10
< 5.00	6.00 to 7.00		Cc1cc(-c2nc3c(=O)n(C4CCN(C)CC4)cnc3s2)cc2cn(C)nc12 [Compound 179, 2-(2,7-dimethyl-2H-indazol-5-yl)-6-(1-methylpiperidin-4-yl)thiazolo[5,4-d]pyrimidin-7(6H)-one]	> 10	> 10
< 5.00	< 5.00		CN1CCN(c2nc3c(=O)n(-c4ccc5nn(C)cc5c4)cnc3s2)CC1 [Compound 181, 6-(2-methyl-2H-indazol-5-yl)-2-(4-methylpiperazin-1-yl)thiazolo[5,4-d]pyrimidin-7(6H)-one]	> 10	> 10
< 5.00	< 5.00		Cn1cc2cc(-n3cnc4sc(N5CCN(Cc6ccc(F)cc6)CC5)nc4c3=O)ccc2n1 [Compound 185, 2-(4-(4-fluorobenzyl)piperazin-1-yl)-6-(2-methyl-2H-indazol-5-yl)thiazolo[5,4-d]pyrimidin-7(6H)-one]	> 10	> 10
5.00 to 6.00	5.00 to 6.00		Cc1cn2cc(-c3nc4c(=O)n(C5CCN(C)CC5)cnc4s3)cc(F)c2n1 [Compound 186, 2-(8-fluoro-2-methylimidazo[1,2-a]pyridin-6-yl)-6-(1-methylpiperidin-4-yl)thiazolo[5,4-d]pyrimidin-7(6H)-one]	1 to 10	1 to 10
5.00 to 6.00	< 5.00		Cc1cc(-c2nc3c(=O)n(C4CC(C)(C)N(C=O)C(C)(C)C4)cnc3s2)cc2cn(C)nc12 [Compound 187, 4-(2-(2,7-dimethyl-2H-indazol-5-yl)-7-oxothiazolo[5,4-d]pyrimidin-6(7H)-yl)-2,2,6,6-tetramethylpiperidine-1-carbaldehyde]	> 10	1 to 10
< 5.00	< 5.00	< 5.00	CN1CCC(Nc2nc3c(=O)n(-c4ccc5nn(C)cc5c4)cnc3s2)CC1 [Compound 189, 6-(2-methyl-2H-indazol-5-yl)-2-((1-methylpiperidin-4-yl)amino)thiazolo[5,4-d]pyrimidin-7(6H)-one]	> 10	> 10
< 5.00	< 5.00	< 5.00	Cn1cc2cc(-n3cnc4sc(N5CCNCC5)nc4c3=O)ccc2n1 [Compound 219, 6-(2-methyl-2H-indazol-5-yl)-2-(piperazin-1-yl)thiazolo[5,4-d]pyrimidin-7(6H)-one]	> 10	> 10
< 5.00	< 5.00	5.00 to 6.00	Cc1cn2cc(-n3cnc4sc(N5CCNCC5)nc4c3=O)cc(F)c2n1 [Compound 220, 6-(8-fluoro-2-methylimidazo[1,2-a]pyridin-6-yl)-2-(piperazin-1-yl)thiazolo[5,4-d]pyrimidin-7(6H)-one]	> 10	> 10
< 5.00	< 5.00	< 5.00	Cc1cn2cc(-n3cnc4sc(N5CCN(C)CC5)nc4c3=O)cc(F)c2n1 [Compound 221, 6-(8-fluoro-2-methylimidazo[1,2-a]pyridin-6-yl)-2-(4-methylpiperazin-1-yl)thiazolo[5,4-d]pyrimidin-7(6H)-one]	> 10	> 10
< 5.00	< 5.00	< 5.00	Cc1cn2cc(-n3cnc4sc(N5CCNCC5)nc4c3=O)cc(C(F)(F)F)c2n1 [Compound 223, 6-(2-methyl-8-(trifluoromethyl)imidazo[1,2-a]pyridin-6-yl)-2-(piperazin-1-yl)thiazolo[5,4-d]pyrimidin-7(6H)-one]	> 10	> 10
			Cc1cn2cc(-n3cnc4sc(N5CCN(C)CC5)nc4c3=O)cc(C(F)(F)F)c2n1 [Compound 224, 6-(2-methyl-8-(trifluoromethyl)imidazo[1,2-a]pyridin-6-yl)-2-(4-methylpiperazin-1-yl)thiazolo[5,4-d]pyrimidin-7(6H)-one]	> 10	> 10

Compound	pIC50 (HTT CJ mRNA transcript)	pIC50 (SMN2 CJ mRNA transcript)	pIC50 [3]	AC50 [1] [µM]	AC50 [2] [µM]
CN1CC=C(c2nc3c(=O)n(-c4ccc5nn(C)cc5c4)cnc3s2)CC1 [Compound 188, 2-(1-methyl-1,2,3,6-tetrahydropyridin-4-yl)-6-(2-methyl-2H-indazol-5-yl)thiazolo[5,4-d]pyrimidin-7(6H)-one]	< 5.00	< 5.00	5.00 to 6.00	> 10	> 10
CN1CCC(N(C)c2nc3c(=O)n(-c4ccc5nn(C)cc5c4)cnc3s2)CC1 [Compound 190, 2-(methyl(1-methylpiperidin-4-yl)amino)-6-(2-methyl-2H-indazol-5-yl)thiazolo[5,4-d]pyrimidin-7(6H)-one]	< 5.00	< 5.00	< 5.00	> 10	> 10
